Structures can show the parent of a compound that is named as a salt. Non-standard residues stand in square brackets, D forms with d. Residues, ends and D or L forms follow the SMILES beside them. *: point of attachment. Sta = CC(C)C[C@H](N)[C@@H](O)CC(=O)O; Isovaleryl = CC(C)CC(=O)*
Assay: in vitro
Conditions: rat, gh3-tre-luc cells, AC50 (uM) modified / 1000

Row | SMILES | CC50 at 24 h [µM]
1 | COc1ccc(/C=C/C(=O)OCCC(C)C)cc1 [Amiloxate] | > 50
2 | O=C1OC(OC(=O)c2cccnc2Nc2cccc(C(F)(F)F)c2)c2ccccc21 (centres unmarked) [Talniflumate] | > 50
3 | CCOc1ccc(O)cc1 [4-Ethoxyphenol] | > 90
4 | CC(C)(C)S [2-Methyl-2-propanethiol] | > 90
5 | CNC(=O)OCc1cccc(COC(=O)NC)n1 [Pyricarbate] | > 50
6 | O=C1NC(=O)c2cccc3cccc1c23 [1H-Benzo[de]isoquinoline-1,3(2H)-dione] | > 90
7 | CCC(C)(C)OC [tert-Amyl methyl ether] | > 90
8 | CC(O)CN(CCN(CC(C)O)CC(C)O)CC(C)O (centres unmarked) [N,N,N',N'-Tetrakis(2-Hydroxypropyl)ethylenediamine] | > 90
9 | C=CCc1ccccc1O [2-Allylphenol] | > 90
10 | CC(COc1ccccc1)NC(C)C(O)c1ccc(O)cc1 (centres unmarked) [Isoxsuprine hydrochloride] | > 20
11 | C=C(C)C(=O)NCCCN(C)C [N-[3-(Dimethylamino)propyl]methacrylamide] | > 90
12 | Cc1ccc(N)c(C)c1 [2,4-Dimethylaniline] | > 90
13 | CC(C)(C)C(=O)O [2,2-Dimethylpropanoic acid] | > 90
14 | ClC=C(Cl)Cl [Trichloroethylene] | > 90
15 | CCC(C)S (centres unmarked) [2-Butanethiol] | > 4
16 | O=C(O)c1cc(O)c2c3nc4ccccc4oc-3cc(=O)c2n1 [Pirenoxine sodium] | > 50
17 | FC(F)(F)C(F)(F)C(F)(F)C(F)(F)C(F)(F)C(F)(F)C(F)(F)C(F)(F)Br [1-Bromoheptadecafluorooctane] | > 50
18 | CC(=O)c1cc(C(C)(C)C)cc2c1CCC2(C)C [1-(6-tert-Butyl-1,1-dimethyl-2,3-dihydro-1H-inden-4-yl)ethanone] | 40.7
19 | Cc1nc2ccccc2n1Cc1ccc(Cl)cc1 [Chlormidazole] | > 50
20 | CCCN(CCC)C(=O)SCC [EPTC] | > 100
21 | CC1CCCCN1CCCOC(=O)c1ccccc1 (centres unmarked) [Piperocaine hydrochloride] | > 50
22 | O=C(N[C@H]1N=C(c2ccccc2F)c2cccc3c2N(CC3)C1=O)c1cc2ccccc2[nH]1 [Pranazepide] | > 50

Row | SMILES | CC50 at 24 h [µM]
23 | CC(C)NCC(O)COc1cccc2[nH]ccc12 (centres unmarked) [Pindolol] | > 50
24 | COc1ccc(CNCC(O)COc2ccc3[nH]c(=O)ccc3c2)cc1OC (centres unmarked) [Toborinone] | > 50
25 | COc1ccc2c(c1)c(CC(=O)O)c(C)n2C(=O)c1ccc(Cl)cc1 [Indomethacin] | > 90
26 | c1nc[nH]n1 [1,2,4-Triazole, sodium salt] | > 90
27 | CN/C(=N/CC1CCOC1)N[N+](=O)[O-] (centres unmarked) [Dinotefuran] | > 90
28 | Cc1c(C)c2c(c(C)c1OC(=O)c1cccnc1)CC[C@@](C)(CCC[C@H](C)CCC[C@H](C)CCCC(C)C)O2 (racemic) [DL-alpha Tocopheryl nicotinate] | > 50
29 | C[N+]1(C)CCCC(OC(=O)C(O)(c2ccccc2)c2ccccc2)C1 (centres unmarked) [Mepenzolate bromide] | > 20
30 | CCCCCCCCCCCCCCCO [1-Pentadecanol] | > 90
31 | O=C(CO)[C@@H](O)[C@@H](O)[C@H](O)CO [D-Tagatose] | > 50
32 | COc1ccc2cc([C@H](C)CO)ccc2c1 [Naproxol] | > 50
33 | CC(=O)OCC(=O)[C@@]1(O)CC[C@H]2[C@@H]3CCC4=CC(=O)CC[C@]4(C)[C@H]3[C@@H](O)C[C@@]21C [Hydrocortisone acetate] | > 50
34 | COc1cccc2c1cc([N+](=O)[O-])c1c(C(=O)O)cc3c(c12)OCO3 [Sodium aristolochate-I] | 5.9
35 | C=C(C)[C@H]1CC=C(C)C(=O)C1 [d-Carvone] | > 90
36 | COC(=O)C1=C(C)NC(C)=C(C(=O)OCCCN2CCC(c3ccccc3)(c3ccccc3)CC2)C1c1cccc([N+](=O)[O-])c1 (racemic) [(+/-) -Niguldipine hydrochloride (1:x)] | 12.3
37 | c1ccc2c(c1)ccc1ncccc12 [Benzo(f)quinoline] | > 90
38 | Cc1cc(N)no1 [5-Methyl-3-isoxazolamine] | > 100
39 | C[C@@H]1C(=O)C[C@H]2[C@]3(C)CC[C@@]2([C@H](C)C(=O)O)C(=O)[C@H]13 [Santonic acid] | > 50
40 | F/C(COc1ccc2c(c1)[nH]c1ccccc12)=C1/CN2CCC1CC2 [2-{[(2E)-2-(1-Azabicyclo[2.2.2]oct-3-ylidene)-2-fluoroethyl]oxy}-9H-carbazole] | 7.59
41 | CCCCc1nc(Cl)c(CO)n1Cc1ccc(-c2ccccc2-c2nn[nH]n2)cc1 [Losartan] | > 50
42 | CO[C@@H]1[C@@H](O[C@@H]2O[C@H](C)[C@@H](O[C@H]3C[C@@](C)(O)[C@@H](OC(=O)CC(C)C)[C@H](C)O3)[C@H](N(C)C)[C@H]2O)[C@@H](CC=O)C[C@@H](C)[C@@H](O)/C=C/C=C/C[C@@H](C)OC(=O)C[C@H]1OC(C)=O [Josamycin] | > 20
43 | CCCCCCCCOC(C)=O [Octyl acetate] | > 90
44 | Clc1ccc(-c2ccc(Cl)c(Cl)c2Cl)c(Cl)c1Cl [Aroclor 1260] | > 90

Row | SMILES | CC50 at 24 h [µM]
45 | O=S(=O)(O)c1ccccc1/C=C/c1ccc(-c2ccc(/C=C/c3ccccc3S(=O)(=O)O)cc2)cc1 [Disodium 4,4'-bis(2-sulfostyryl)biphenyl] | > 80
46 | CC(C)CC(=O)N[C@H](C(=O)N[C@H](C(=O)N[C@@H](CC(C)C)[C@@H](O)CC(=O)N[C@@H](C)C(=O)N[C@@H](CC(C)C)[C@@H](O)CC(=O)O)C(C)C)C(C)C [Pepstatin] (Isovaleryl-VV[Sta]A[Sta]-OH) | > 50
47 | CC(C)Cc1ccc(C(C)C(=O)O)cc1 (centres unmarked) [Ibuprofen] | > 90
48 | NCCCN1CCOCC1 [4-Morpholinepropanamine] | > 90
49 | CCCC(=O)O [Butanoic acid] | > 100
50 | O=C(O)CN(CC(=O)O)Cc1cc2c(cc1O)Oc1cc(O)c(CN(CC(=O)O)CC(=O)O)cc1C21OC(=O)c2ccccc21 [Oftasceine] | > 50
51 | O=C(O)c1ccccc1Nc1cc(Cl)ccc1C(=O)O [Lobenzarit sodium] | > 50
52 | Oc1c(Cl)cccc1Cl [2,6-Dichlorophenol] | > 90
53 | CC1=C(C(=O)O)N2C(=O)[C@@H](NC(=O)[C@H](N)C3=CCC=CC3)[C@H]2SC1 [Cephradine] | > 50
54 | O=C1c2c(O)ccc(Nc3ccc(CCO)cc3)c2C(=O)c2c([N+](=O)[O-])ccc(O)c21 [C.I. Disperse Blue 27] | 63.1
55 | Clc1ccccc1Cl [1,2-Dichlorobenzene] | > 90
56 | COc1ccc2c3c1O[C@H]1[C@H](O)CC[C@H]4[C@@H](C2)N(C)CC[C@@]341 [Dihydroisocodeine] | > 90
57 | CC(=O)SCC(Cc1ccccc1)C(=O)NCC(=O)OCc1ccccc1 (centres unmarked) [Racecadotril] | > 20
58 | O=C1CCCCC1 [Cyclohexanone] | > 100
59 | CCCCCOC(=O)c1ccc(O)cc1 [Pentylparaben] | 67.4
60 | OCCOc1ccc(OCCO)cc1 [2,2'-[1,4-Phenylenebis(oxy)]diethanol] | > 90
61 | CC(=O)OCc1ccc2c(c1)OCO2 [Piperonyl acetate] | > 90
62 | CS(=O)(=O)OCCCNCCCOS(C)(=O)=O [Improsulfan tosylate] | > 50
63 | O=C(O)c1cc(Cl)cc(Cl)c1O [3,5-Dichlorosalicylic acid] | > 90
64 | O=C1CC2CC1C1CCCC21 (centres unmarked) [Corodane] | > 90
65 | CN(C)c1ccc(N=NS(=O)(=O)O)cc1 [Fenaminosulf] | > 90

Same assay, conditions: rat, gh3-tre-luc cells, AC50 (uM) modified / 1000, Tox21_110001=Tox21_112103; viability, 1 nM T3 present, 24 h

Row | SMILES | CC50 at 24 h [µM]
66 | O=c1n(Cl)c(=O)n(Cl)c(=O)n1Cl [Symclosene] | > 50

Same assay, conditions: rat, gh3-tre-luc cells, AC50 (uM) modified / 1000, Tox21_110001=Tox21_112752; viability, 1 nM T3 present, 24 h

Row | SMILES | CC50 at 24 h [µM]
67 | CCC1(CC)C(=O)NC(=O)N(C)C1=O [Metharbital] | > 50

Same assay, conditions: rat, gh3-tre-luc cells, AC50 (uM) modified / 1000, Tox21_110001=Tox21_112881; viability, 1 nM T3 present, 24 h

Row | SMILES | CC50 at 24 h [µM]
68 | NC1(c2ccccc2)CCCCC1 [1-Phenylcyclohexylamine hydrochloride] | 40.7

Same assay, conditions: rat, gh3-tre-luc cells, AC50 (uM) modified / 1000, Tox21_110001=Tox21_200003; viability, 1 nM T3 present, 24 h

Row | SMILES | CC50 at 24 h [µM]
69 | Cl/C=C\Cl [(Z)-1,2-Dichloroethylene] | > 90

Same assay, conditions: rat, gh3-tre-luc cells, AC50 (uM) modified / 1000, Tox21_110001=Tox21_200294; viability, 1 nM T3 present, 24 h

Row | SMILES | CC50 at 24 h [µM]
70 | CCCC(=O)Cl [Butyryl chloride] | > 90

Same assay, conditions: rat, gh3-tre-luc cells, AC50 (uM) modified / 1000, Tox21_110001=Tox21_200489; viability, 1 nM T3 present, 24 h

Row | SMILES | CC50 at 24 h [µM]
71 | NNCc1ccccc1 [Benzylhydrazine dihydrochloride] | > 90

Same assay, conditions: rat, gh3-tre-luc cells, AC50 (uM) modified / 1000, Tox21_110001=Tox21_200804; viability, 1 nM T3 present, 24 h

Row | SMILES | CC50 at 24 h [µM]
72 | N#CC(O)c1ccccc1 (stereo not drawn) [alpha-Hydroxybenzeneacetonitrile] | > 90

Same assay, conditions: rat, gh3-tre-luc cells, AC50 (uM) modified / 1000, Tox21_110001=Tox21_201502; viability, 1 nM T3 present, 24 h

Row | SMILES | CC50 at 24 h [µM]
73 | CC(=O)C=Cc1ccccc1 [Methyl styryl ketone] | > 90

Same assay, conditions: rat, gh3-tre-luc cells, AC50 (uM) modified / 1000, Tox21_110001=Tox21_300858; viability, 1 nM T3 present, 24 h

Row | SMILES | CC50 at 24 h [µM]
74 | O=c1n(Cl)c(=O)n(Cl)c(=O)n1Cl [Symclosene] | > 90

Same assay, conditions: rat, gh3-tre-luc cells, AC50 (uM) modified / 1000, Tox21_110001=Tox21_301598; viability, 1 nM T3 present, 24 h

Row | SMILES | CC50 at 24 h [µM]
75 | CC(=O)/C=C/c1ccccc1 [Methyl trans-styryl ketone] | > 90

Same assay, conditions: rat, gh3-tre-luc cells, AC50 (uM) modified / 1000, Tox21_110001=Tox21_301886; viability, 1 nM T3 present, 24 h

Row | SMILES | CC50 at 24 h [µM]
76 | O=[N+]([O-])c1ccc(Nc2ccc(Nc3ccccc3)c(S(=O)(=O)O)c2)c([N+](=O)[O-])c1 [C.I. Acid Orange 3] | 76.1

Same assay, conditions: rat, gh3-tre-luc cells, AC50 (uM) modified / 1000, Tox21_110001=Tox21_302045; viability, 1 nM T3 present, 24 h

Row | SMILES | CC50 at 24 h [µM]
77 | NCCOS(=O)(=O)O [2-Aminoethyl hydrogen sulfate] | > 90
